PubChem BioAssay AID2060325 (Molecular Pharmacology Branch, DTP, NCI, 2025)
pIC50: −log10 of the molar value.

Tested on: SK-OV-3 multi-cell spheroids, viability
Test: Anticancer human tumor SK-OV-3 cell line growth inhibition [IpAb];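 as to viability, T/C: viability read after seven days of drug exposure; percent of DMSO vehicle control luminescence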
Conditions: for pIC50: curve of first compound; for viability, T/C: stronger effect = lower value
In short: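 Multi-cell spheroids of 60% tumour cells, 25% HUVEC and 15% MSC in ultra-low-attachment U-bottom wells, treated with agents combined with ipatasertib or abemaciclib. Half-log ranges top out near clinical Cmax, or 10 microM when Cmax is unknown.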

Cn1ncc(Cl)c1-c1cc(C(=O)NC(CN)Cc2cccc(F)c2)sc1Cl (stereo not given) + CCN1CCN(Cc2ccc(Nc3ncc(F)c(-c4cc(F)c5nc(C)n(C(C)C)c5c4)n3)nc2)CC1
pIC50 (second compound 0.01 µM): 7.18
pIC50 (second compound 0.0316 µM): 7.46
pIC50 (second compound 0.1 µM): > 7.50
pIC50 (second compound 0.316 µM): > 7.50
pIC50 (second compound 1 µM): > 7.50
viability, T/C (second compound 0.01 µM, first compound 0.0316 µM): 66.5%
viability, T/C (second compound 0.01 µM, first compound 0.1 µM): 41%
viability, T/C (second compound 0.01 µM, first compound 0.316 µM): 22.1%
viability, T/C (second compound 0.01 µM, first compound 1 µM): 14.1%
viability, T/C (second compound 0.01 µM, first compound 3.16 µM): 6.99%
viability, T/C (second compound 0.01 µM, first compound 10 µM): 0.34%
viability, T/C (second compound 0.0316 µM, first compound 0.0316 µM): 52.8%
viability, T/C (second compound 0.0316 µM, first compound 0.1 µM): 30.6%
viability, T/C (second compound 0.0316 µM, first compound 0.316 µM): 22.3%
viability, T/C (second compound 0.0316 µM, first compound 1 µM): 13.8%
viability, T/C (second compound 0.0316 µM, first compound 3.16 µM): 7.67%
viability, T/C (second compound 0.0316 µM, first compound 10 µM): 0.51%
viability, T/C (second compound 0.1 µM, first compound 0.0316 µM): 42.7%
viability, T/C (second compound 0.1 µM, first compound 0.1 µM): 26.7%
viability, T/C (second compound 0.1 µM, first compound 0.316 µM): 18.1%
viability, T/C (second compound 0.1 µM, first compound 1 µM): 12.9%
viability, T/C (second compound 0.1 µM, first compound 3.16 µM): 7.38%
viability, T/C (second compound 0.1 µM, first compound 10 µM): 0.3%
viability, T/C (second compound 0.316 µM, first compound 0.0316 µM): 43.3%
viability, T/C (second compound 0.316 µM, first compound 0.1 µM): 29.8%
viability, T/C (second compound 0.316 µM, first compound 0.316 µM): 20%
viability, T/C (second compound 0.316 µM, first compound 1 µM): 15.1%
viability, T/C (second compound 0.316 µM, first compound 3.16 µM): 8.84%
viability, T/C (second compound 0.316 µM, first compound 10 µM): 0.17%
viability, T/C (second compound 1 µM, first compound 0.0316 µM): 36.3%
viability, T/C (second compound 1 µM, first compound 0.1 µM): 34.7%
viability, T/C (second compound 1 µM, first compound 0.316 µM): 24.4%
viability, T/C (second compound 1 µM, first compound 1 µM): 17.8%
viability, T/C (second compound 1 µM, first compound 3.16 µM): 12.2%
viability, T/C (second compound 1 µM, first compound 10 µM): 0.39%
